We go through 16 molecules from PubChem BioAssay AID248 (DTP/NCI, 2004).

The subject of the test is L1210 leukemia ip in BDF1 mice, survival T/C. Nature of the test: NCI In Vivo Anticancer Drug Screen. Data for tumor model L1210 Leukemia (intraperitoneal) in B6D2F1 (BDF1) mice. As to conditions: endpoint: mean survival time, higher = longer survival. The method in brief:
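Tumor was transplanted into mice, which were then dosed with test compound or vehicle alone. Survival was recorded for each group, and the treated figure was expressed relative to the control figure.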

Where [1] appears, read: dose: 100.0 mg/kg/injection, schedule: Q01DX009 (ip), vehicle: saline with Tween-80.
[2] abbreviates: dose: 200.0 mg/kg/injection, schedule: Q01DX009 (ip), vehicle: saline with Tween-80.
Where [3] appears, read: dose: 400.0 mg/kg/injection, schedule: Q01DX009 (ip), vehicle: saline with Tween-80.
[4] abbreviates: dose: 100.0 mg/kg/injection, schedule: Q04DX002 (ip), vehicle: saline with Tween-80.
The mark [5] stands for this setting: dose: 200.0 mg/kg/injection, schedule: Q04DX002 (ip), vehicle: saline with Tween-80.
Setting [6] is: dose: 400.0 mg/kg/injection, schedule: Q04DX002 (ip), vehicle: saline with Tween-80.
Setting [7] is: dose: 100.0 mg/kg/injection, schedule: Q04DX003 (ip), vehicle: Klucel (hydroxypropylcellulose) (HPC).
[8] abbreviates: dose: 200.0 mg/kg/injection, schedule: Q04DX003 (ip), vehicle: Klucel (hydroxypropylcellulose) (HPC).
The mark [9] stands for this setting: dose: 400.0 mg/kg/injection, schedule: Q04DX003 (ip), vehicle: Klucel (hydroxypropylcellulose) (HPC).

Where “and” joins values, the source holds several entries; their conditions need not be identical. Equal entries are not always repeated. Inconclusive results and toxic doses are left out.

Take `CC1(C)N=C(N)N=C(N)N1c1ccc(CCC(=O)Nc2ccc(S(=O)(=O)F)cc2)cc1`: the T/C is, setting by setting: (dose: 0.8 mg/kg/injection, schedule: Q01DX009 (ip), vehicle: saline) 97 % of control; (dose: 4.0 mg/kg/injection, schedule: Q01DX009 (ip), vehicle: saline) 105 % of control; (dose: 8.8 mg/kg/injection, schedule: Q01DX009 (ip), vehicle: saline) 117 % of control; (dose: 13.0 mg/kg/injection, schedule: Q01DX009 (ip), vehicle: saline) 121 % of control; (dose: 20.0 mg/kg/injection, schedule: Q01DX009 (ip), vehicle: saline) 121 % of control; (dose: 50.0 mg/kg/injection, schedule: Q01DX009 (ip), vehicle: saline) 163 % of control. In addition, the T/C (dose: 75.0 mg/kg/injection, schedule: Q## X003 (ip), vehicle: saline) was 122 % of control; the T/C (dose: 200.0 mg/kg/injection, schedule: Q01DX009 (ip), vehicle: saline) is 100 % of control; the T/C (dose: 600.0 mg/kg/injection, schedule: Q## X003 (ip), vehicle: saline) was 102 % of control.
For the molecule `Cc1cc(=O)cc(C)o1`, the T/C is 108 % of control under setting [1], 100 % of control under setting [2] and 102 % of control under setting [3].
In the case of `CSc1ccc(NC(=O)Oc2ccccn2)cc1`, the T/C by setting is: (dose: 100.0 mg/kg/injection, schedule: Q01DX001 (ip), vehicle: saline with Tween-80) 89 % of control; under setting [1], 97 % of control; under setting [4], 93 % of control and 94 % of control; (dose: 200.0 mg/kg/injection, schedule: Q01DX001 (ip), vehicle: saline with Tween-80) 103 % of control; under setting [2], 90 % of control; under setting [5], 96 % of control and 114 % of control. The T/C reads like this: (dose: 200.0 mg/kg/injection, schedule: Q04DX003 (ip), vehicle: saline with Tween-80) 88 % of control; (dose: 400.0 mg/kg/injection, schedule: Q01DX001 (ip), vehicle: saline with Tween-80) 105 % of control; under setting [6], 95 % of control and 96 % of control; (dose: 400.0 mg/kg/injection, schedule: Q04DX003 (ip), vehicle: saline with Tween-80) 97 % of control.
Turning to `O=C(c1ccccc1)c1[nH]c2ccccc2c1-c1ccccc1`, the T/C by setting is: under setting [4], 103 % of control; under setting [5], 107 % of control; under setting [6], 100 % of control.
Regarding `O=C1c2ccccc2C(=O)C2C3C=CC(CC3)C12` (centres undefined), the T/C reads like this: (dose: 50.0 mg/kg/injection, schedule: Q01DX001 (ip), vehicle: carboxymethylcellulose (CMC)) 100 % of control; (dose: 100.0 mg/kg/injection, schedule: Q01DX001 (ip), vehicle: carboxymethylcellulose (CMC)) 97 % of control; (dose: 200.0 mg/kg/injection, schedule: Q01DX001 (ip), vehicle: carboxymethylcellulose (CMC)) 97 % of control; (dose: 400.0 mg/kg/injection, schedule: Q01DX001 (ip), vehicle: carboxymethylcellulose (CMC)) 97 % of control.
In the case of `CCCCNc1c(C(=O)OCC)cnc2c1cnn2CC`, the T/C is 100 % of control (dose: 12.0 mg/kg/injection, schedule: Q01DX009 (ip), vehicle: Klucel (hydroxypropylcellulose) (HPC)); 96 % of control (dose: 25.0 mg/kg/injection, schedule: Q01DX009 (ip), vehicle: Klucel (hydroxypropylcellulose) (HPC)); 106 % of control (dose: 50.0 mg/kg/injection, schedule: Q01DX009 (ip), vehicle: Klucel (hydroxypropylcellulose) (HPC)); 96 % of control (dose: 75.0 mg/kg/injection, schedule: Q01DX009 (ip), vehicle: Klucel (hydroxypropylcellulose) (HPC)).
For `CCOC(=O)COc1ccccc1Cl`, the T/C (dose: 1.56 mg/kg/injection, schedule: Q04DX002 (ip), vehicle: Klucel (hydroxypropylcellulose) (HPC)) is 115 % of control; the T/C (dose: 3.13 mg/kg/injection, schedule: Q04DX002 (ip), vehicle: Klucel (hydroxypropylcellulose) (HPC)) is 105 % of control; the T/C (dose: 6.25 mg/kg/injection, schedule: Q04DX002 (ip), vehicle: Klucel (hydroxypropylcellulose) (HPC)) was 108 % of control; the T/C (dose: 12.5 mg/kg/injection, schedule: Q04DX002 (ip), vehicle: Klucel (hydroxypropylcellulose) (HPC)) was 106 % of control; the T/C (dose: 25.0 mg/kg/injection, schedule: Q04DX002 (ip), vehicle: Klucel (hydroxypropylcellulose) (HPC)) is 95 % of control; the T/C (dose: 50.0 mg/kg/injection, schedule: Q04DX002 (ip), vehicle: Klucel (hydroxypropylcellulose) (HPC)) was 97 % of control.
For the molecule `NC1(C(=O)c2ccccc2)CC2CCC1C2` (centres undefined), the T/C by setting is: under setting [7], 101 % of control; under setting [8], 98 % of control; under setting [9], 103 % of control.
Turning to `O=S(=O)(Nc1ccc(NS(=O)(=O)c2ccccc2)c2ccccc12)c1ccccc1`, the T/C reads like this: under setting [1], 87 % of control; under setting [2], 92 % of control; under setting [3], 92 % of control.
With `O=C(CNC(=O)Nc1ccc(F)cc1)NNC(=O)Nc1ccc(Cl)c([N+](=O)[O-])c1`, the T/C reads like this: (dose: 25.0 mg/kg/injection, schedule: Q01DX009 (ip), vehicle: saline with Tween-80) 94 % of control; (dose: 50.0 mg/kg/injection, schedule: Q01DX009 (ip), vehicle: saline with Tween-80) 93 % of control; under setting [1], 102 % of control.
Consider `O=C(O)C1C(C2c3ccc(O)cc3Oc3cc(O)ccc32)C2(Cl)C(Cl)=C(Cl)C1(Cl)C2(Cl)Cl` (centres undefined), for which the T/C by setting is: (dose: 100.0 mg/kg/injection, schedule: Q04DX003 (ip), vehicle: saline) 100 % of control; (dose: 200.0 mg/kg/injection, schedule: Q04DX003 (ip), vehicle: saline) 93 % of control; (dose: 400.0 mg/kg/injection, schedule: Q04DX003 (ip), vehicle: saline) 94 % of control.
For the molecule `O=C(C1CC1c1ccccc1)N1CCN(c2ccccc2)CC1` (centres undefined), the T/C was 98 % of control (dose: 100.0 mg/kg/injection, schedule: Q01DX009 (ip), vehicle: Klucel (hydroxypropylcellulose) (HPC)); 90 % of control (dose: 200.0 mg/kg/injection, schedule: Q01DX009 (ip), vehicle: Klucel (hydroxypropylcellulose) (HPC)); 100 % of control (dose: 400.0 mg/kg/injection, schedule: Q01DX009 (ip), vehicle: Klucel (hydroxypropylcellulose) (HPC)).
`C[N+]1=NN(c2nc[nH]c2C(N)=O)CC1`: the T/C by setting is: (dose: 100.0 mg/kg/injection, schedule: Q04DX002 (ip), vehicle: saline) 96 % of control; (dose: 200.0 mg/kg/injection, schedule: Q04DX002 (ip), vehicle: saline) 100 % of control; (dose: 400.0 mg/kg/injection, schedule: Q04DX002 (ip), vehicle: saline) 115 % of control.
With `c1ccc(N2CCNCC2)cc1`, the T/C is, setting by setting: (dose: 5.0 mg/kg/injection, schedule: Q01DX001 (ip), vehicle: saline) 98 % of control [middle of 5 runs]; (dose: 6.25 mg/kg/injection, schedule: Q01DX001 (ip), vehicle: saline) 97 % of control; (dose: 6.25 mg/kg/injection, schedule: Q04DX003 (ip), vehicle: saline) 99 % of control; (dose: 10.0 mg/kg/injection, schedule: Q01DX001 (ip), vehicle: saline) 102 % of control [middle of 5 runs]; (dose: 12.5 mg/kg/injection, schedule: Q01DX001 (ip), vehicle: saline) 92 % of control; (dose: 12.5 mg/kg/injection, schedule: Q04DX003 (ip), vehicle: saline) 99 % of control. For the same molecule, the T/C (dose: 20.0 mg/kg/injection, schedule: Q01DX001 (ip), vehicle: saline) was 98 % of control [middle of 5 runs]; the T/C (dose: 25.0 mg/kg/injection, schedule: Q01DX001 (ip), vehicle: saline) was 97 % of control; the T/C (dose: 25.0 mg/kg/injection, schedule: Q04DX003 (ip), vehicle: saline) was 96 % of control; the T/C (dose: 40.0 mg/kg/injection, schedule: Q01DX001 (ip), vehicle: saline) was 104 % of control [middle of 5 runs]; the T/C (dose: 80.0 mg/kg/injection, schedule: Q01DX001 (ip), vehicle: saline) is 92 % of control and 98 % of control and 115 % of control; the T/C (dose: 100.0 mg/kg/injection, schedule: Q01DX001 (ip), vehicle: saline) is 101 % of control.
Consider `Br/C=C(\Br)CBr`, for which the T/C reads like this: (dose: 75.0 mg/kg/injection, schedule: Q01DX001 (sc), vehicle: olive oil, sesame oil, peanut oil) 105 % of control; (dose: 150.0 mg/kg/injection, schedule: Q01DX001 (sc), vehicle: olive oil, sesame oil, peanut oil) 108 % of control.
In the case of `C=C(C)C1CCC2(C(=O)O)CCC3(C)C(CCC4C5(C)CCC(=O)C(C)(C)C5CCC43C)C12` (centres undefined), the T/C is, setting by setting: under setting [7], 102 % of control; under setting [8], 96 % of control; under setting [9], 94 % of control.
